Data reported in patent publication US20160002204A1 (Board of Regents, The University of Texas System, priority 2014, published 2016).

Columns and labels:
[1] = target: T1, GLS1 (purified recombinant human GAC) (Homo sapiens, UniProt O94925); assay: GLS1 enzymatic activity assay (dual-coupled, Amplex UltraRed/resorufin); type: biochemical
T1 sequence (O94925 55-598 isoform O94925-3 limits assumed): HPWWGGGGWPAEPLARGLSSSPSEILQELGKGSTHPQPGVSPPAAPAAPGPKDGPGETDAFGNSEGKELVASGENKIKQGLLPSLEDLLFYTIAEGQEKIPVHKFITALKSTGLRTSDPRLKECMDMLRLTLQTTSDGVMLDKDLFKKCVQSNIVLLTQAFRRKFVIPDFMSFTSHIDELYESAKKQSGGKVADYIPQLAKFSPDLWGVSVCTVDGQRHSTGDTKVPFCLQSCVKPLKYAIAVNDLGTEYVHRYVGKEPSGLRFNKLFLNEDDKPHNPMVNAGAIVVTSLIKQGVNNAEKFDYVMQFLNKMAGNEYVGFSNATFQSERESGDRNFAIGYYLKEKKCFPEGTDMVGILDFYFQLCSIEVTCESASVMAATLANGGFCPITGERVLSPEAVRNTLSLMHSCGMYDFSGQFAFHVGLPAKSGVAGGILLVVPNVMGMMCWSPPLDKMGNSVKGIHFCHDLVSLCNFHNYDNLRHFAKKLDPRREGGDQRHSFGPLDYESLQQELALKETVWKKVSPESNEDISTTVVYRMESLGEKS
Procedure, shortened: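 In this coupled fluorometric format, phosphate-activated GAC (2 nM, 50 mM phosphate) is pre-exposed to compound for 10 min before 1 mM glutamine addition. Product is tracked as resorufin (530/590 nm) over time or at 20 min, and potency is derived by logistic fitting.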

A549 cells = assay: A549 proliferation (viability) assay, Cell Titer Fluor, 72 hours; type: cell-based; details: Homo sapiens
Procedure, shortened: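 A549 cells seeded at 1000 cells/well, left 24 h, then exposed to compound for 72 h at 37 °C, 5% CO2, final DMSO 0.5% (v/v). Viability read by Cell Titer Fluor fluorescence; EC50 from four-parameter logistic fit.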

Compound	IC50 [1] [µM]	EC50 (A549 cells) [µM]
CC(C)CC(=O)Nc1ccn(CCCCn2cc(C(=O)NCC3CCCCC3)nn2)c(=O)c1 [Example 39, N-(cyclohexylmethyl)-1-{4-[4-(3-methylbutanamido)-2-oxo-1,2-dihydropyridin-1-yl]butyl}-1H-1,2,3-triazole-4-carboxamide]	0.1 to 0.5	0.5 to 5
CC(C)(O)c1ccc(CNC(=O)c2cn(CC(F)CCn3ccc(NC(=O)CC4CCCCC4)c(F)c3=O)nn2)cn1 (stereo not drawn) [Example 268, 1-{4-[4-(2-cyclohexylacetamido)-3-fluoro-2-oxo-1,2-dihydropyridin-1-yl]-2-fluorobutyl}-N-{[6-(2-hydroxypropan-2-yl)pyridin-3-yl]methyl}-1H-1,2,3-triazole-4-carboxamide]	< 0.1	0.1 to 0.5
Cc1ccc(CNC(=O)c2cn(CCCCn3ccc(NC(=O)Cc4cccc(OC(F)(F)F)c4)cc3=O)nn2)cn1 [Example 70, N-[(6-methylpyridin-3-yl)methyl]-1-[4-(2-oxo-4-{2-[3-(trifluoromethoxy)phenyl]acetamido}-1,2-dihydropyridin-1-yl)butyl]-1H-1,2,3-triazole-4-carboxamide]	< 0.1	0.5 to 5
CS(=O)(=O)c1ccc(CNC(=O)c2cn(CCCCn3ccc(NC(=O)Cc4cccc(OC(F)(F)F)c4)cc3=O)nn2)cc1 [Example 68, N-[(4-methanesulfonylphenyl)methyl]-1-[4-(2-oxo-4-{2-[3-(trifluoromethoxy)phenyl]acetamido}-1,2-dihydropyridin-1-yl)butyl]-1H-1,2,3-triazole-4-carboxamide]	< 0.1	> 5
O=C(CC1CCN(C(=O)CC(F)(F)F)CC1)Nc1ccn(CCC(F)Cn2cc(C(=O)NCc3cccc(OC(F)(F)F)c3)nn2)c(=O)c1F (stereo not drawn) [Example 301, 1-[2-fluoro-4-(3-fluoro-2-oxo-4-{2-[1-(3,3,3-trifluoropropanoyl)piperidin-4-yl]acetamido}-1,2-dihydropyridin-1-yl)butyl]-N-{[3-(trifluoromethoxy)phenyl]methyl}-1H-1,2,3-triazole-4-carboxamide]	< 0.1	< 0.1
O=C(CC1CCCC1)Nc1ccn(CCC(F)Cn2cc(C(=O)NCc3cccc(C(F)(F)F)n3)nn2)c(=O)c1F (stereo not drawn) [Example 318, 1-{4-[4-(2-cyclopentylacetamido)-3-fluoro-2-oxo-1,2-dihydropyridin-1-yl]-2-fluorobutyl}-N-{[6-(trifluoromethyl)pyridin-2-yl]methyl}-1H-1,2,3-triazole-4-carboxamide]	< 0.1	< 0.1
O=C(Cc1ccccc1)Nc1cnn(CCC(F)Cn2cc(C(=O)NCc3cccc(OC(F)(F)F)c3)nn2)c(=O)c1 (stereo not drawn) [Example 263, 1-{2-fluoro-4-[6-oxo-4-(2-phenylacetamido)-1,6-dihydropyridazin-1-yl]butyl}-N-{[3-(trifluoromethoxy)phenyl]methyl}-1H-1,2,3-triazole-4-carboxamide]	< 0.1	0.1 to 0.5
O=C(Cc1ccccc1)Nc1ccn(CCC(F)Cn2cc(C(=O)NCc3ccc(OC(F)(F)F)cn3)nn2)c(=O)c1F (stereo not drawn) [Example 409, 1-{2-fluoro-4-[3-fluoro-2-oxo-4-(2-phenylacetamido)-1,2-dihydropyridin-1-yl]butyl}-N-{[5-(trifluoromethoxy)pyridin-2-yl]methyl}-1H-1,2,3-triazole-4-carboxamide]	< 0.1	< 0.1
CC(C)(C)COC(=O)Nc1ccn(CCC(F)Cn2cc(C(=O)NCc3cccc(OC(F)(F)F)c3)nn2)c(=O)n1 (stereo not drawn) [Example 493, 2,2-dimethylpropyl N-(1-{3-fluoro-4-[4-({[3-(trifluoro-methoxy)phenyl]methyl}carbamoyl)-1H-1,2,3-triazol-1-yl]butyl}-2-oxo-1,2-dihydropyrimidin-4-yl)carbamate]	< 0.1	< 0.1
O=C(Nc1ccn(CCC(F)Cn2cc(C(=O)NCc3cccc(C(F)(F)F)n3)nn2)c(=O)c1F)OC1CCC1 (stereo not drawn) [Example 397, cyclobutyl N-(3-fluoro-1-{3-fluoro-4-[4-({[6-(trifluoromethyl)pyridin-2-yl]methyl}carbamoyl)-1H-1,2,3-triazol-1-yl]butyl}-2-oxo-1,2-dihydropyridin-4-yl)carbamate]	0.1 to 0.5	0.1 to 0.5
CC(C)(C)OC(=O)N1CCN(CC(=O)Nc2ccn(CCC(F)Cn3cc(C(=O)NCC4CCCC4)nn3)c(=O)c2)CC1 (stereo not drawn) [Example 405, tert-butyl 4-({[1-(4-{4-[(cyclopentylmethyl)carbamoyl]-1H-1,2,3-triazol-1-yl}-3-fluorobutyl)-2-oxo-1,2-dihydropyridin-4-yl]carbamoyl}methyl)piperazine-1-carboxylate]	0.1 to 0.5	0.1 to 0.5
O=C(Cc1cccc(OC(F)(F)F)c1)Nc1ccc(CCCCn2ccc(NC(=O)CO)nc2=O)nn1 [Example 113, 2-hydroxy-N-{2-oxo-1-[4-(6-{2-[3-(trifluoromethoxy)phenyl]acetamido}pyridazin-3-yl)butyl]-1,2-dihydropyrimidin-4-yl}acetamide]	< 0.1	0.5 to 5
O=C(Cc1ccccc1)Nc1ccc(CCCCn2ccc(NC(=O)[C@@H](O)c3ccccc3)nc2=O)nn1 [Example 22, (S)-2-hydroxy-N-(2-oxo-1-(4-(6-(2-phenylacetamido)pyridazin-3-yl)butyl)-1,2-dihydropyrimidin-4-yl)-2-phenylacetamide]	< 0.1	0.5 to 5
O=C(Nc1ccn(CCC(F)Cn2cc(C(=O)NCc3cccc(OC(F)(F)F)c3)nn2)c(=O)n1)OCc1ccccc1 (stereo not drawn) [Example 470, benzyl N-(1-{3-fluoro-4-[4-({[3-(trifluoromethoxy)phenyl]methyl}carbamoyl)-1H-1,2,3-triazol-1-yl]butyl}-2-oxo-1,2-dihydropyrimidin-4-yl)carbamate]	< 0.1	< 0.1
COc1ccc(CNC(=O)c2cn(CCCCn3ccc(NC(=O)Cc4cccc(OC(F)(F)F)c4)cc3=O)nn2)cc1 [Example 67, N-[(4-methoxyphenyl)methyl]-1-[4-(2-oxo-4-{2-[3-(trifluoromethoxy)phenyl]acetamido}-1,2-dihydropyridin-1-yl)butyl]-1H-1,2,3-triazole-4-carboxamide]	< 0.1	0.5 to 5
O=C(Cc1ccccc1)Nc1ccn(CCC(F)Cn2cc(C(=O)NCc3ccc(C(F)(F)F)cn3)nn2)c(=O)c1F (stereo not drawn) [Example 379, 1-{2-fluoro-4-[3-fluoro-2-oxo-4-(2-phenylacetamido)-1,2-dihydropyridin-1-yl]butyl}-N-{[5-(trifluoromethyl)pyridin-2-yl]methyl}-1H-1,2,3-triazole-4-carboxamide]	< 0.1	0.1 to 0.5
O=C(NCc1ccccc1)c1ccn(CCCCn2cc(C(=O)NCc3cccc(OC(F)(F)F)c3)nn2)c(=O)c1 [Example 8, N-Benzyl-2-oxo-1-(4-(4-((3-(trifluoromethoxy)benzyl)carbamoyl)-1H-1,2,3-triazol-1-yl)butyl)-1,2-dihydropyridine-4-carboxamide]	< 0.1	0.1 to 0.5
O=C(Nc1ccn(CCC(F)Cn2cc(C(=O)NCc3cccc(OC(F)(F)F)c3)nn2)c(=O)c1F)C(=O)N1CCOCC1 (stereo not drawn) [Example 417, 1-(2-fluoro-4-{3-fluoro-4-[2-(morpholin-4-yl)-2-oxoacetamido]-2-oxo-1,2-dihydropyridin-1-yl}butyl)-N-{[3-(trifluoromethoxy)phenyl]methyl}-1H-1,2,3-triazole-4-carboxamide]	0.1 to 0.5	0.5 to 5
CC(C)(C)OC(=O)Nc1ccn(CCC(F)Cn2cc(C(=O)NCc3cc(C(F)(F)F)ccn3)nn2)c(=O)c1F (stereo not drawn) [Example 320, tert-butyl N-(3-fluoro-1-{3-fluoro-4-[4-({[4-(trifluoromethyl)pyridin-2-yl]methyl}carbamoyl)-1H-1,2,3-triazol-1-yl]butyl}-2-oxo-1,2-dihydropyridin-4-yl)carbamate]	0.1 to 0.5	0.1 to 0.5
O=C(CC1CCCC1)Nc1ccn(CCC(F)Cn2cc(C(=O)NCc3ccc(CF)nc3)nn2)c(=O)c1F (stereo not drawn) [Example 388, 1-{4-[4-(2-cyclopentylacetamido)-3-fluoro-2-oxo-1,2-dihydropyridin-1-yl]-2-fluorobutyl}-N-{[6-(fluoromethyl)pyridin-3-yl]methyl}-1H-1,2,3-triazole-4-carboxamide]	< 0.1	< 0.1
C[C@@H]1CCN(C(=O)C(=O)Nc2ccn(CCC(F)Cn3cc(C(=O)NCc4cc(OC(F)(F)F)ccc4F)nn3)c(=O)c2F)C1 (stereo partly drawn) [Example 431, 1-[2-fluoro-4-(3-fluoro-4-{2-[(3R)-3-methylpyrrolidin-1-yl]-2-oxoacetamido}-2-oxo-1,2-dihydropyridin-1-yl)butyl]-N-{[2-fluoro-5-(trifluoromethoxy)phenyl]methyl}-1H-1,2,3-triazole-4-carboxamide]	< 0.1	< 0.1
